Consider 32 compounds from patent publication US8536168B2 (Novartis AG, priority 2007, dated 2013).

Structures are written as SMILES. pIC50: −log10 of the molar value. Where two headings read alike, the source gives them in different places. A value given as a limit tells only on which side of the number the result lay.

The target of experiment [1] is human Smoothened receptor (Homo sapiens, UniProt Q99835). Kind of experiment: Smo binding assay, displacement of radio-labeled smoothened agonist, filter binding format (human). As to conditions: displacement of small molecule agonist of Smoothened, read-out: Human Smo bdg., IC50. The source says:
A Smo binding assay was developed using radio-labeled smoothened agonist for compound competition. Table 9 lists the IC50 for displacement of a small molecule agonist of Smoothened determined in a filter binding format for the mouse and human Smoothened receptor.

Experiment [2] has as its system Gli-luciferase activity. The experiment is described as follows: Reporter gene assay (RGA) in TMHh12 cells, antagonism of Gli-luciferase activity in the presence of a Smo agonist. In kind it is cell-based. How it is done: Activity of the compounds was evaluated using a reporter gene assay (RGA) in TMHh12 cells.
In experiment [3] the target is mouse Smoothened receptor (Mus musculus, UniProt P56726). The experiment is described as follows: Smo binding assay, displacement of radio-labeled smoothened agonist, filter binding format (mouse). As to conditions: displacement of small molecule agonist of Smoothened, read-out: Mouse Smo bdg., IC50. The source says:
A Smo binding assay was developed using radio-labeled smoothened agonist for compound competition.

Setting [4] is: 25 nM small molecule Smo agonist, read-out: RGA (25 nM Smo agonist) IC50.
[5] abbreviates: read-out: RGA (1 nM Smo agonist) IC50, 1 nM small molecule Smo agonist.

Sequence of mouse Smoothened receptor (P56726 33-793): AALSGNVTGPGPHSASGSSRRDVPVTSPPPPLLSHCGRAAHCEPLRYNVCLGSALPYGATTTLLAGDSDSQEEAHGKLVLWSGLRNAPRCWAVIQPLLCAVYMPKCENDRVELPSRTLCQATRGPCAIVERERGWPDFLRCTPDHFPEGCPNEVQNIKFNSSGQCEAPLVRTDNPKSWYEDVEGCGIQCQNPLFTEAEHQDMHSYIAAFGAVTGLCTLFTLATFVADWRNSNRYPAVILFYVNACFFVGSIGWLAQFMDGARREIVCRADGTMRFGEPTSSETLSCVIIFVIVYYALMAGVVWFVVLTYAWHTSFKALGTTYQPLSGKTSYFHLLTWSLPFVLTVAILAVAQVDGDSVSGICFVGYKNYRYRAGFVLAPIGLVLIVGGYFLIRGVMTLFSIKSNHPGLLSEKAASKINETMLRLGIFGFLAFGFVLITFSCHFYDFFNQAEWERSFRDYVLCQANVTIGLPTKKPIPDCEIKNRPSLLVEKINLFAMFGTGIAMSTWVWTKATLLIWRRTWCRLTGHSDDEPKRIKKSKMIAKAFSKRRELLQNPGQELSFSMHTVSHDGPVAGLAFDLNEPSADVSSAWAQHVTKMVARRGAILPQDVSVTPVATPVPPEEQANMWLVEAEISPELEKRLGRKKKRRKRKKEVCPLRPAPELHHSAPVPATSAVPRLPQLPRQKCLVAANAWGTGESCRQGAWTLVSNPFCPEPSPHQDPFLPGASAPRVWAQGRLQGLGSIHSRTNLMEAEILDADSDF
Sequence of human Smoothened receptor (Q99835 28-787): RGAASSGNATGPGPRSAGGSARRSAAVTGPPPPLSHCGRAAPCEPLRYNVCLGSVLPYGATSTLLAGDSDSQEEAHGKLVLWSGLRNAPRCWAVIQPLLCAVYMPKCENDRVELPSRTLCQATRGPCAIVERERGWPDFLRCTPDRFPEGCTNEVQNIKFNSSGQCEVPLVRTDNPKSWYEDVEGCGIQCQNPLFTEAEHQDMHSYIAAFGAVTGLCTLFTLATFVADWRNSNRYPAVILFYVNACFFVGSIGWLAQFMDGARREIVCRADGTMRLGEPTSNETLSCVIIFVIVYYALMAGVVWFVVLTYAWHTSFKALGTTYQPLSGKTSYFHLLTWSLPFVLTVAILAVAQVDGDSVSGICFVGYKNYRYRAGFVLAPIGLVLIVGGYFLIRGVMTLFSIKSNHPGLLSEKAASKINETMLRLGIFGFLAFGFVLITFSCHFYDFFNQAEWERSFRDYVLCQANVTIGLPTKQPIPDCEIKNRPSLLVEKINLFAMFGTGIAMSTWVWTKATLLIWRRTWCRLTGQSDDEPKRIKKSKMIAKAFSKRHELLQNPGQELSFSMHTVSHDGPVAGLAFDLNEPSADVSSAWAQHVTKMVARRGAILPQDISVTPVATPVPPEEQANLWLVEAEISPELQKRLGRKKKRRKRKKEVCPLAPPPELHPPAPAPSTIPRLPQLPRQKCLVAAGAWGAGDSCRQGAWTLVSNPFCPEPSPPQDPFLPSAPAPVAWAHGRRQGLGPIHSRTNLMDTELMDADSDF

As to `OC(c1ccc(N2CCN(c3nnc(Cc4ccccc4)c4ccccc34)CC2)nc1)C(F)(F)F` (stereo not shown) [Example 109], the pIC50 is over 7.00 in experiment [1], 6.00 to 7.00 in experiment [2] (setting [4]), over 7.00 in experiment [2] (setting [5]) and over 7.00 in experiment [3].

For the compound `Cc1cc(N2CCN(c3ccc(C#N)cn3)CC2)nnc1Cc1ccc(F)cc1` [Example 85], the pIC50 in experiment [1], in experiment [2] (setting [5]) and in experiment [3] was 6.00 to 7.00 throughout.

As for `C[C@H]1CN(c2ccc(C#N)cn2)CCN1c1nnc(Cc2ccccc2)c2ccccc12` [Example 117], the pIC50 in experiment [1] was over 7.00; in experiment [2] (setting [4]), 6.00 to 7.00; in experiment [2] (setting [5]), over 7.00; in experiment [3], over 7.00.

As for `O=C1CCCN1c1ccc(N2CCN(c3nnc(Cc4ccccc4)c4ccccc34)CC2)nc1` [Example 131], the pIC50 in experiment [1] is over 7.00; in experiment [2] (setting [4]) it was 6.00 to 7.00; in experiment [2] (setting [5]) it was 6.00 to 7.00; in experiment [3] it was over 7.00.

Take `CC(C)(O)CNC(=O)c1ccc(N2CCN(c3nnc(Cc4ccccc4)c4ccccc34)CC2)nc1` [Example 54u]: the pIC50 in experiment [1] was 6.00 to 7.00; in experiment [2] (setting [4]), 6.00 to 7.00; in experiment [2] (setting [5]), over 7.00; in experiment [3], over 7.00.

On to `CC(C)(O)c1cnc(N2CCN(c3nnc(Cc4ccccc4)c4ccccc34)CC2)cn1` [Example 150], for which the pIC50 in experiment [1], in experiment [2] (setting [4]), in experiment [2] (setting [5]) and in experiment [3] was over 7.00 throughout.

Regarding `Cc1c(Cc2ccccc2)nnc(N2CCN(c3ccc(C(F)(F)F)cn3)CC2)c1CNCc1ccccc1` [Example 241, N-benzyl-1-(6-benzyl-5-methyl-3-(4-(5-(trifluoromethyl)pyridin-2-yl)piperazin-1-yl)pyridazin-4-yl)methanamine], the pIC50 is 5.00 to 6.00 in experiment [1], 4.40 to 5.00 in experiment [2] (setting [4]), 5.00 to 6.00 in experiment [2] (setting [5]) and 5.00 to 6.00 in experiment [3].

For the compound `COC(=O)c1ccc(C2CCN(c3nnc(Cc4ccccc4)c4ccccc34)CC2)cc1` [Example 115], the pIC50 in experiment [1], in experiment [2] (setting [4]), in experiment [2] (setting [5]) and in experiment [3] was 5.00 to 6.00 each time.

On to `c1ccc(Cc2nnc(N3CCC(c4nc5ccccc5[nH]4)CC3)c3ccccc23)cc1` [Example 114], for which the pIC50 in experiment [1] is over 7.00; in experiment [2] (setting [4]), 6.00 to 7.00; in experiment [2] (setting [5]), over 7.00; in experiment [3], over 7.00.

Take `O=C(O)c1ccc(N2CCN(c3nnc(Cc4ccccc4)c4ccccc34)CC2)cc1` [Example 16]: the pIC50 in experiment [1], in experiment [2] (setting [4]), in experiment [2] (setting [5]) and in experiment [3] was 5.00 to 6.00 throughout.

For the compound `COC(=O)c1cnc(N2CCN(c3nnc(Cc4ccccc4)c4ccccc34)CC2)cn1` [Example 138], the pIC50 is over 7.00 in experiment [1], 6.00 to 7.00 in experiment [2] (setting [4]), over 7.00 in experiment [2] (setting [5]) and over 7.00 in experiment [3].

As to `CCOC(=O)c1cnc(N2CCN(c3nnc(Cc4ccccc4)c4ccccc34)CC2)nc1C(F)(F)F` [Example 137], the pIC50 in experiment [1], in experiment [2] (setting [4]), in experiment [2] (setting [5]) and in experiment [3] was over 7.00 in each case.

For the compound `FC(F)(F)c1ccc(N2CCN(c3nnc(Cc4ccccc4)c4ccccc34)CC2)cc1` [Example 55, 1-Benzyl-4-[4-(4-trifluoromethyl-phenyl)-piperazin-1-yl]-phthalazine], the pIC50 in experiment [1] was 6.00 to 7.00; in experiment [2] (setting [4]), 5.00 to 6.00; in experiment [2] (setting [5]), 6.00 to 7.00; in experiment [3], 6.00 to 7.00.

In the case of `CN1CCN(C(=O)c2ccc(N3CCN(c4nnc(Cc5ccccc5)c5ccccc45)CC3)nc2)CC1` [Example 54i], the pIC50 in experiment [1] is 5.00 to 6.00; in experiment [2] (setting [4]) it was 5.00 to 6.00; in experiment [2] (setting [5]), 6.00 to 7.00; in experiment [3] it was 6.00 to 7.00.

As to `C[C@H]1CN(c2nnc(Cc3ccccc3)c3ccccc23)CCN1c1ccc(C#N)cn1` [Example 143, 6-[(S)-4-(4-Benzyl-phthalazin-1-yl)-2-methyl-piperazin-1-yl]-nicotinonitrile], the pIC50 is over 7.00 in experiment [1], 6.00 to 7.00 in experiment [2] (setting [4]), over 7.00 in experiment [2] (setting [5]) and over 7.00 in experiment [3].

On to `N#Cc1ccc(N2CCN(c3nnc(Cc4ccc(F)cc4)c4c3CCC4)CC2)nc1` [Example 93c, 6-{4-[4-(4-Fluoro-benzyl)-6,7-dihydro-5H-cyclopenta[d]pyridazin-1-yl]-piperazin-1-yl}-nicotinonitrile], for which the pIC50 in experiment [1] was over 7.00; in experiment [2] (setting [4]), 6.00 to 7.00; in experiment [2] (setting [5]), over 7.00; in experiment [3], over 7.00.

For `O=C(Cc1ccc(N2CCN(c3nnc(Cc4ccccc4)c4ccccc34)CC2)nc1)N1CCCC1` [Example 171, 2-{6-[4-(4-Benzyl-phthalazin-1-yl)-piperazin-1-yl]-pyridin-3-yl}-1-pyrrolidin-1-yl-ethanone], the pIC50 in experiment [1] was over 7.00; in experiment [2] (setting [4]) it was 6.00 to 7.00; in experiment [2] (setting [5]) it was over 7.00; in experiment [3], over 7.00.

In the case of `N#Cc1ccc(N2CCN(c3nnc(Cc4ccc(Cl)cc4Cl)c4ccccc34)CC2)nc1` [Example 177], the pIC50 in experiment [1] is over 7.00; in experiment [2] (setting [4]), 6.00 to 7.00; in experiment [2] (setting [5]), 6.00 to 7.00; in experiment [3], over 7.00.

Take `COCCC(=O)NC(C)(C)c1ccc(N2CCN(c3nnc(Cc4ccccc4)c4ccccc34)CC2)nc1` [Example 122]: the negative logarithm of the IC50 (pIC50) in experiment [1] is 6.00 to 7.00; in experiment [2] (setting [4]), 6.00 to 7.00; in experiment [2] (setting [5]) it was over 7.00; in experiment [3], over 7.00.

As for `CC(C)c1cnc(N2CCN(c3nnc(Cc4ccccc4)c4ccccc34)CC2)cn1` [Example 165, 4-(4-Benzyl-phthalazin-1-yl)-5′-isopropyl-3,4,5,6-tetrahydro-2H-[1,2′]bipyrazinyl], the pIC50 in experiment [1], in experiment [2] (setting [4]), in experiment [2] (setting [5]) and in experiment [3] was over 7.00 each time.

In the case of `C[C@@H]1CN(c2nnc(Cc3ccccc3)c3ccccc23)[C@@H](C)CN1c1ccc(C#N)cn1` [Example 119], the pIC50 in experiment [1] is 6.00 to 7.00; in experiment [2] (setting [4]), 5.00 to 6.00; in experiment [2] (setting [5]), 6.00 to 7.00; in experiment [3], 6.00 to 7.00.

With `O=C(c1ccc(C(F)(F)F)cc1)N1CCC(c2cn(Cc3ccccc3)c3ccccc23)CC1` [Example 105], the pIC50 in experiment [1] is 5.00 to 6.00; in experiment [2] (setting [4]), 4.40 to 5.00; in experiment [2] (setting [5]), 5.00 to 6.00; in experiment [3], 5.00 to 6.00.

Regarding `CC(=O)Nc1ccc(C2CCN(c3nnc(Cc4ccccc4)c4ccccc34)CC2)cc1` [Example 129], the pIC50 in experiment [1] was 5.00 to 6.00; in experiment [2] (setting [4]), 5.00 to 6.00; in experiment [2] (setting [5]) it was 6.00 to 7.00; in experiment [3], 6.00 to 7.00.

As to `O=C(c1cccc(F)c1)N1CCC(c2cn(Cc3ccc(F)cc3)c3ccccc23)CC1` [Example 101], the pIC50 in experiment [1] was 6.00 to 7.00; in experiment [2] (setting [4]), 4.40 to 5.00; in experiment [2] (setting [5]) it was 6.00 to 7.00; in experiment [3], 6.00 to 7.00.

With `CC1(c2ccc(N3CCN(c4nnc(Cc5ccccc5)c5ccccc45)CC3)nc2)OCCO1` [Example 164, 1-Benzyl-4-(4-(5-(2-methyl-1,3-dioxolan-2-yl)pyridin-2-yl)piperazin-1-yl)phthalazine], the pIC50 in experiment [1], in experiment [2] (setting [4]), in experiment [2] (setting [5]) and in experiment [3] was over 7.00 each time.

In the case of `Cc1cc(Cc2ccc(F)cc2)nnc1N1CCN(c2ccc(C#N)cn2)CC1` [Example 84], the pIC50 in experiment [1] was 6.00 to 7.00; in experiment [2] (setting [4]), 5.00 to 6.00; in experiment [2] (setting [5]), over 7.00; in experiment [3] it was 6.00 to 7.00.

Regarding `CC(C)(O)c1cnc(N2CCN(c3nnc(Cc4ccccc4)c4ccccc34)CC2)cc1C(F)(F)F` [Example 148], the pIC50 in experiment [1], in experiment [2] (setting [4]), in experiment [2] (setting [5]) and in experiment [3] was over 7.00 each time.

With `N#Cc1ccc(N2CCN(c3nnc(Cc4cccc(C(F)(F)F)c4)c4ccccc34)CC2)nc1` [Example 56, 6-{4-[4-(3-Trifluoromethyl-benzyl)-phthalazin-1-yl]-piperazin-1-yl}-nicotinonitrile], the pIC50 in experiment [1] is 6.00 to 7.00; in experiment [2] (setting [4]), 5.00 to 6.00; in experiment [2] (setting [5]), over 7.00; in experiment [3], over 7.00.

In the case of `O=C(c1ccc(N2CCN(c3nnc(Cc4ccccc4)c4ccccc34)CC2)nc1)N1CC[S+]([O-])C1` (stereo not shown) [Example 54q], the pIC50 in experiment [1] is 6.00 to 7.00; in experiment [2] (setting [4]), 6.00 to 7.00; in experiment [2] (setting [5]), over 7.00; in experiment [3] it was 6.00 to 7.00.

Take `CC(C)(N)c1ccc(N2CCN(c3nnc(Cc4ccccc4)c4ccccc34)CC2)nc1` [Example 120, 2-(6-(4-(4-Benzylphthalazin-1-yl)piperazin-1-yl)pyridin-3-yl)propan-2-amine]: the pIC50 in experiment [1], in experiment [2] (setting [4]), in experiment [2] (setting [5]) and in experiment [3] was over 7.00 throughout.

`CN(C)CC(=O)NCc1ccc(N2CCN(c3nnc(Cc4ccccc4)c4ccccc34)CC2)nc1` [Example 212]: the negative-log IC50 (pIC50) in experiment [1] is over 7.00; in experiment [2] (setting [4]) it was 6.00 to 7.00; in experiment [2] (setting [5]) it was over 7.00; in experiment [3], over 7.00.

With `C[C@@H]1CN(c2nnc(Cc3ccccc3)c3ccccc23)CCN1c1ccc(C#N)cn1` [Example 142, 6-[(R)-4-(4-Benzyl-phthalazin-1-yl)-2-methyl-piperazin-1-yl]-nicotinonitrile], the pIC50 was over 7.00 in experiment [1], 6.00 to 7.00 in experiment [2] (setting [4]), over 7.00 in experiment [2] (setting [5]) and over 7.00 in experiment [3].

Usually pIC50 stands for the negative decadic logarithm of the IC50, by convention in mol/L.
